Measured values as given in PubChem BioAssay (NCI).
“And” between values parts separate entries of the source, which are not always exact repeats. Identical values can stand only once.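 Each compound was tested at five concentrations against cells in 96-well plates for 48 hours. GI50 is the concentration that inhibits growth by half. TGI marks complete inhibition of growth.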

System: A549 NSCLC
Experiment: growth of human tumour cells (NCI), 48 h

Row | SMILES | TGI | GI50
1 | CC(=O)Nc1ccc(-c2nnc(SCC(=O)Nc3ccc([N+](=O)[O-])cc3)o2)cc1 | 37 µM | 
2 | N.N.N.N.O=[N+]([O-])[O-].[Co+3].[N-]=[N+]=[N-].[N-]=[N+]=[N-] | > 100 µM | 
3 | COC(=O)C1CCC(=O)N1C(c1ccccc1)c1ccc(OC)c(OC)c1 (stereo not drawn) | > 100 µM | 
4 | Oc1cccc2c(Cl)ccnc12 | > 100 µM | 
5 | Cc1cccc(/C=N/NC(=S)Nc2ccccc2)n1 | > 100 µM | 
6 | N#CC1=C(N)N(c2ccccc2)C(c2ccco2)C1(C#N)C#N (stereo not drawn) | > 100 µM | 
7 | Cc1cc(=O)[nH]c(NN2C(Cl)C(=O)C2c2ccccc2O)n1 (stereo not drawn) | > 100 µM | 
8 | CC(C)c1ccc(/C=C2/C=C(c3ccc4ccccc4c3)OC2=O)cc1 | > 100 µM | 
9 | COc1ccc(/C=C2\CCC(C)C3=C2NC(=S)NC3c2ccc(OC)c(OC)c2)cc1OC (stereo not drawn) | > 100 µM | 
10 | COc1ccc2c(=O)c(O)c(-c3ccc(OC)c(OC)c3)oc2c1 | > 100 µM | 
11 | COc1ccc(C(OCC2OC(n3cc(C)c(=O)[nH]c3=O)CC2n2cc(Cn3cc(I)c(=O)[nH]c3=O)nn2)(c2ccccc2)c2ccccc2)cc1 (stereo not drawn) | > 100 µM | 
12 | C=C(C1=CC(=O)C(C)(C)O1)[C@@H]1CC=C([C@@H]2CC[C@H]3[C@@]2(C)CC[C@H]2C(C)(C)C(=O)[C@H](O)C[C@]32C)[C@H](O)O1 | 30.7 µM | 
13 | CC1=CC2C(O1)C1C(=O)C=CC(=O)C1=CC2[N+](=O)[O-] (stereo not drawn) | 43.5 µM | 
14 | C=C(Br)C(C)(Cl)CCC(Br)C(C)(C)Cl (stereo not drawn) | > 100 µM | 
15 | Cc1c2cnccc2c(C)c2c1c1ccccc1n2CCCN | 1.29 µM and 0.447 µM | 0.0471 µM
16 | O=C(CCC(=O)c1ccc(Cl)cc1)NO | > 100 µM | 
17 | COc1c(C)c(C/C=C(\C)CCCCO[Si](c2ccccc2)(c2ccccc2)C(C)(C)C)c(OC)c(OC)c1OC | 51 µM | 
18 | CN1CCN([C@H]2C[C@H]3[C@@H]4CC=C5C[C@@H](O)CC[C@]5(C)[C@H]4CC[C@]3(C)C2=O)CC1 | > 100 µM | 
19 | COc1ccc(C2c3cc4c(cc3OC(NNS(=O)(=O)c3ccc(C)cc3)C2C)OCO4)cc1 (stereo not drawn) | > 100 µM | 
20 | CNC(=O)OCC1=C(COC(=O)NC)C(C)N(c2ccc(OC)cc2)C1 (stereo not drawn) | > 100 µM | 
21 | CCC12C=CCN3CCC4(C(=C(C(=O)OC)[C@@H]1O)Nc1ccccc14)C32 (stereo partly drawn) | 5.15 µM | 
22 | O=C(O)CN(CC(=O)O)C1CCCCC1N(CC(=O)O)CC(=O)NCCN=C=S (stereo not drawn) | > 100 µM | 
23 | Cc1nc(C(N)=S)sc1/C(CC(=O)C(=O)Nc1cccc2ccc(O)cc12)=N\NC(=O)c1ccncc1 | > 100 µM | 
24 | Cc1cc(O)c2c(=O)c3ccccc3[nH]c2c1 | > 100 µM | 
25 | N=c1n(C(=O)N2CCCC2)c2cc(Cl)ccc2n1C1=NCCN1 | > 100 µM | 
26 | COc1nc(N)c(C(=O)CCl)c(=O)n1C | 51.6 µM | 
27 | [N-]=[N+]=Nc1cc(=O)oc2ccccc12 | > 100 µM | 
28 | Nc1cccc2cc(Cl)cnc12 | > 100 µM | 
29 | C=C1c2nc3ccccc3n2C=C(c2ccccc2)N1c1ccc([N+](=O)[O-])cc1 | 13.5 µM | 
30 | Cc1ccccc1-n1c(=O)c2ncn(CCCl)c2n(-c2ccccc2C)c1=S | > 100 µM | 

System: ACHN renal
Experiment: growth of human tumour cells (NCI), 48 h

Row | SMILES | TGI
31 | CC(=O)Nc1ccc(-c2nnc(SCC(=O)Nc3ccc([N+](=O)[O-])cc3)o2)cc1 | 28.7 µM
32 | N.N.N.N.O=[N+]([O-])[O-].[Co+3].[N-]=[N+]=[N-].[N-]=[N+]=[N-] | > 100 µM
33 | COC(=O)C1CCC(=O)N1C(c1ccccc1)c1ccc(OC)c(OC)c1 (stereo not drawn) | > 100 µM
34 | Oc1cccc2c(Cl)ccnc12 | > 47.7 µM
35 | Cc1cccc(/C=N/NC(=S)Nc2ccccc2)n1 | 13.7 µM
36 | N#CC1=C(N)N(c2ccccc2)C(c2ccco2)C1(C#N)C#N (stereo not drawn) | 32 µM
37 | Cc1cc(=O)[nH]c(NN2C(Cl)C(=O)C2c2ccccc2O)n1 (stereo not drawn) | > 100 µM
